Key:
[1] = target: MNK2a (Homo sapiens (Human), UniProt Q9HBH9); assay: MNK2a in vitro kinase assay (Assay 2), ADP-Glo; format: biochemical; settings: read-out: MNK2 IC50
[2] = target: MNK1 (Homo sapiens (Human), UniProt Q9BUB5); assay: MNK1 in vitro kinase assay (Assay 3), Z'-LYTE; format: biochemical; settings: for inhibition at 1 µM: compound concentration of 1 μM, read-out: MNK1 % INH
Excerpt: C. MNK1 In vitro Kinase Assay (Assay 3)
MNK1 Data can be obtained from the MNK1 Z′-LYTE® assay. The MNK1 Z′-LYTE® screening protocol and assay conditions are also described on www.invitrogen.com.
The assay is described as follows:
The Z′-LYTE® biochemical assay employs a fluorescence-based, coupled-enzyme format and is based on the differential sensitivity of phosphorylated and non-phosphorylated peptides to proteolytic cleavage. The peptide substrate is labeled with two fluorophores—one at each end—that make up a FRET pair.
In the primary reaction, the kinase transfers the gamma-phosphate of ATP to a single tyrosine, serine or threonine residue in a synthetic FRET-peptide. In the secondary reaction, a site-specific protease recognizes and cleaves non-phosphorylated FRET-peptides. Phosphorylation of FRET-peptides suppresses cleavage by the Development Reagent. Cleavage disrupts FRET between the donor (i.e., coumarin) and acceptor (i.e., fluorescein) fluorophores on the FRET-peptide, whereas uncleaved, phosphorylated FRET-peptides maintain FRET. A ratiometric method, which calculates the ratio (the Emission Ratio) of donor emission to acceptor emission after excitation of the donor fluorophore at 400 nm, is used to quantitate reaction progress, as shown in the equation below.
ASSAY SETUP: The inhibition of kinase activity of MNK1a was assessed using pre-activated GST-MNK1a. The 2×MKNK1 (MNK1) mixture is prepared in 50 mM HEPES pH 7.5, 0.01% BRIJ-35, 10 mM MgCl2, 4 mM MnCl2, 1 mM EGTA, 2 mM DTT.
The Test Compounds are screened in 1% DMSO (final) in the well.
All Peptide/Kinase Mixtures are diluted to a 2× working concentration in the MNK1 Kinase Buffer.
All ATP Solutions are diluted to a 4× working concentration in Kinase Buffer (50 mM HEPES pH 7.5, 0.01% BRIJ-35, 10 mM MgCl2, 1 mM EGTA).
Development Reagent Solution:
The Development Reagent is diluted in Development Buffer
1. 2.5 μL—4× Test Compound
2. 5 μL—2× Peptide/Kinase Mixture
5. 60-minute Kinase Reaction incubation at room temperature
6. 5 μl—Development Reagent Solution
8. 60-minute Development Reaction incubation at room temperature
9. Read on fluorescence plate reader and analyze the data
The following equations are used for each set of data points: […]
Correction for Background Fluorescence: FlSample-FlTCFl Ctl
% Phosphorylation (% Phos): 1−((Emission Ratio×F100%)−C100%)/((C0%−C100%)+[Emission Ratio×(F100%−F0%)])*100%
% Inhibition: 1−(% PhosSample/% Phos0% Inhibition Ctl)*100
Fl=Fluorescence Intensity
C100%=Average Coumarin emission signal of the 100% Phos. Control
C0%=Average Coumarin emission signal of the 0% Phos. Control
F100%=Average Fluorescein emission signal of the 100% Phos. Control
F0%=Average Fluorescein emission signal of the 0% Phos. Control
SelectScreen® Kinase Profiling Service uses XLfit from IDBS.

Sequence of MNK2a (Q9HBH9 whole entry): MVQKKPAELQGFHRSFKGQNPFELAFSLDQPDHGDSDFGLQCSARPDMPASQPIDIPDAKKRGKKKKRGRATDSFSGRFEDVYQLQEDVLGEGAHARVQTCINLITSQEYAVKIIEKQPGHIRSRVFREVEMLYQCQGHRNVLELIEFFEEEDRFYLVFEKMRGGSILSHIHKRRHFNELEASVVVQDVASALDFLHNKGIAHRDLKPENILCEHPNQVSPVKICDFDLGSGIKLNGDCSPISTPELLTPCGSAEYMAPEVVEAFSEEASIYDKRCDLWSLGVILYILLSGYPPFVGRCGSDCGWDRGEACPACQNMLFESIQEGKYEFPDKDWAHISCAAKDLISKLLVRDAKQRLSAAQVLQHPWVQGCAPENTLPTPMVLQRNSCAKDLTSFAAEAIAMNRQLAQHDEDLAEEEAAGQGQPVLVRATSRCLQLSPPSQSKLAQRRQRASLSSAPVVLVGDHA
Sequence of MNK1 (Q9BUB5 other isoform, or with tags, fused parts or gaps): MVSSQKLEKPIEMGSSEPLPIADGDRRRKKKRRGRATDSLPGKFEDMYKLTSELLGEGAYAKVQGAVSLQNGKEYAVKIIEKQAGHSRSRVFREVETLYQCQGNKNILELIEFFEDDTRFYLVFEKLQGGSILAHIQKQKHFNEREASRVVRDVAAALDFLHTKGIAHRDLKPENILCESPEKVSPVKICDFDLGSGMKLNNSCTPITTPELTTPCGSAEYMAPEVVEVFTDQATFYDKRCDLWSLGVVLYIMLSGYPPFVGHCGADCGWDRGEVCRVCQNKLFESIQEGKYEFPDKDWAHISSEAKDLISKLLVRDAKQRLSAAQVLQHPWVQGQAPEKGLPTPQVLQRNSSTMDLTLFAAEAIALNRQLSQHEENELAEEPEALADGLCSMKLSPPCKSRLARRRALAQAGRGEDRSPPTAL

Row | SMILES | IC50 [1] [nM] | inhibition at 1 µM [2] [%] | IC50 [2] [nM]
1 | CCOC(Oc1cc(F)ccc1Nc1ncnc2cc(N=S(C)(C)=O)cc(C)c12)C(F)(F)F (centres unmarked) [Example 1.023] | 8 | 65 | –
2 | Cc1cc(N=S2(=O)CCCC2)cc2ncnc(Nc3cccnc3OCC3CCOC3)c12 (centres unmarked) [Example 2.005] | 1 | 96 | –
3 | Cc1cc([C@@H](C)Oc2cc(F)ccc2Nc2ncnc3cc(N=S(C)(C)=O)cc(C)c23)on1 [Example 2.008] | 1 | – | 25
4 | Cc1cc([C@@H](C)Oc2ncccc2Nc2ncnc3cc(N=S4(=O)CCCC4)cc(C)c23)on1 [Example 2.009] | 1 | – | 49
5 | Cc1cc(N=S(C)(C)=O)cc2ncnc(Nc3ccc(F)cc3OC(C)C(C)(C)C#N)c12 (centres unmarked) [Example 2.010] | 11 | 76 | –
6 | Cc1cc([C@@H](C)Oc2cc(F)ccc2Nc2ncnc3cc(N=S4(=O)CCCC4)cc(C)c23)on1 [Example 2.012] | 28 | 102 | –
7 | Cc1cc(N=S(C)(C)=O)cc2ncnc(Nc3cccnc3OC(C)C)c12 [Example 2.017] | 2 | 90 | –
8 | Cc1cc(N=S2(=O)CCCC2)cc2ncnc(Nc3ccc(F)cc3O[C@H](C)C(F)(F)F)c12 [Example 2.048] | 2 | – | 40
9 | Cc1cc(N=S(C)(C)=O)cc2ncnc(Nc3ccc(F)cc3OC(C)c3ncco3)c12 (centres unmarked) [Example 3.002] | 8 | 80 | –
10 | Cc1cc(N=S(C)(C)=O)cc2ncnc(Nc3ccc(F)cc3OCC3CC3(F)F)c12 (centres unmarked) [Example 3.008] | 5 | 89 | –
11 | Cc1cc(COc2cc(F)ccc2Nc2ncnc3cc(N=S(C)(C)=O)cc(C)c23)no1 [Example 3.009] | 7 | 95 | –
12 | CCOC(=O)[C@@H](C)Oc1cc(F)ccc1Nc1ncnc2cc(N=S3(=O)CCCC3)cc(C)c12 [Example 3.012] | 23 | 100 | –
13 | Cc1cc(N=S(C)(C)=O)cc2ncnc(Nc3ccc(F)cc3OCC3(C#N)CCC3)c12 [Example 3.014] | 8 | 78 | –
14 | Cc1cc(N=S(C)(C)=O)cc2ncnc(Nc3ccc(F)cc3OC(C)Cn3ccnc3C)c12 (centres unmarked) [Example 3.015] | 3 | 45 | –
15 | Cc1cc(N=S(C)(C)=O)cc2ncnc(Nc3ccc(F)cc3OC(C)CC3CCOCC3)c12 (centres unmarked) [Example 3.019] | 24 | 48 | –
16 | CCOC(=O)[C@@H](C)Oc1cc(F)ccc1Nc1ncnc2cc(N=S(C)(C)=O)cc(C)c12 [Example 3.022] | 2 | 98 | –
17 | Cc1cc(N=S(C)(C)=O)cc2ncnc(Nc3ccc(F)cc3OCC3(C)COC3)c12 [Example 3.029] | 17 | 72 | –
18 | Cc1cc(N=S(C)(C)=O)cc2ncnc(Nc3ccc(F)cc3OCCC(F)(F)F)c12 [Example 3.031] | 5 | – | 75
19 | Cc1cc(N=S(C)(C)=O)cc2ncnc(Nc3ccc(F)cc3OCC3CCNC(=O)C3)c12 (centres unmarked) [Example 3.033] | 2 | 56 | –
20 | CCC(C)Oc1cc(F)ccc1Nc1ncnc2cc(N=S(C)(C)=O)cc(C)c12 (centres unmarked) [Example 3.042] | 15 | 78 | –

Second part, the compound after the results:

Row | IC50 [1] [nM] | inhibition at 1 µM [2] [%] | IC50 [2] [nM] | SMILES
21 | 5 | – | 228 | Cc1cc(N=S2(=O)CCCC2)cc2ncnc(Nc3ccc(F)cc3OC(C)C(C)(C)O)c12 (centres unmarked) [Example 2.001]
22 | 6 | 94 | – | Cc1cc(C(C)Oc2cc(F)ccc2Nc2ncnc3cc(N=S(C)(C)=O)cc(F)c23)on1 (centres unmarked) [Example 2.002]
23 | 13 | 76 | – | Cc1cc(N=S(C)(C)=O)cc2ncnc(Nc3ccc(F)cc3OC(C)C(C)(C)O)c12 (centres unmarked) [Example 2.003]
24 | 6 | 75 | – | Cc1cc(N=S2(=O)CCCC2)cc2ncnc(Nc3ccc(F)cc3OCc3ccccc3)c12 [Example 2.004]
25 | 2 | – | 71 | Cc1cc(N=S2(=O)CCC2)cc2ncnc(Nc3ccc(F)cc3O[C@H](C)C(F)(F)F)c12 [Example 2.006]
26 | 2 | 94 | – | Cc1cc(N=S(C)(C)=O)cc2ncnc(Nc3ccc(F)cc3OC(C)C)c12 [Example 2.011]
27 | 2 | 99 | – | Cc1cc([C@@H](C)Oc2cc(F)ccc2Nc2ncnc3cc(N=S4(=O)CCCC4)cc(Cl)c23)on1 [Example 2.014]
28 | 1 | – | 34 | Cc1cc([C@@H](C)Oc2ncccc2Nc2ncnc3cc(N=S(C)(C)=O)cc(C)c23)on1 [Example 2.018]
29 | 2 | – | 60 | Cc1cc(N=S(C)(C)=O)cc2ncnc(Nc3ccc(F)cc3OC(CF)CF)c12 [Example 3.001]
30 | 2 | 73 | – | Cc1cc(N=S(C)(C)=O)cc2ncnc(Nc3ccc(F)cc3OC[C@H]3CNC(=O)O3)c12 [Example 3.003]
31 | 1 | 70 | – | Cc1cc(N=S(C)(C)=O)cc2ncnc(Nc3ccc(F)cc3OCC3CCCCO3)c12 (centres unmarked) [Example 3.006]
32 | 9 | 96 | – | Cc1cc(N=S(C)(C)=O)cc2ncnc(Nc3ccc(F)cc3OC(C)c3cccnc3)c12 (centres unmarked) [Example 3.007]
33 | 8 | 88 | – | Cc1cc(N=S(C)(C)=O)cc2ncnc(Nc3ccc(F)cc3OCC3CCO3)c12 (centres unmarked) [Example 3.013]
34 | 2 | 90 | – | C#CC(C)Oc1cc(F)ccc1Nc1ncnc2cc(N=S(C)(C)=O)cc(C)c12 (centres unmarked) [Example 3.016]
35 | 1 | 92 | – | Cc1cc(N=S(C)(C)=O)cc2ncnc(Nc3ccc(F)cc3O[C@H](C)CN)c12 [Example 3.018]
36 | 2 | 86 | – | Cc1cc(N=S(C)(C)=O)cc2ncnc(Nc3ccc(F)cc3OC(C)c3ccccn3)c12 (centres unmarked) [Example 3.021]
37 | 4 | 53 | – | Cc1cc(N=S(C)(C)=O)cc2ncnc(Nc3ccc(F)cc3OCC(=O)N(C)C)c12 [Example 3.026]
38 | 2 | 98 | – | Cc1cc(N=S(C)(C)=O)cc2ncnc(Nc3ccc(F)cc3OCC3(C(F)(F)F)CC3)c12 [Example 3.027]
39 | 6 | 92 | – | Cc1cc(N=S(C)(C)=O)cc2ncnc(Nc3ccc(F)cc3OC(C)COC3CCOC3)c12 (centres unmarked) [Example 3.028]
40 | 16 | 26 | – | CCOC(=O)[C@H](C)Oc1cc(F)ccc1Nc1ncnc2cc(N=S(C)(C)=O)cc(C)c12 [Example 3.032]
41 | 37 | 89 | – | Cc1cc(N=S(C)(C)=O)cc2ncnc(Nc3ccc(F)cc3OC(C)c3nccs3)c12 (centres unmarked) [Example 3.035]
42 | 2 | 86 | – | Cc1cc(N=S(C)(C)=O)cc2ncnc(Nc3ccc(F)cc3OC[C@H]3CCC(=O)N3)c12 [Example 3.038]
43 | 1 | – | 77 | Cc1cc(N=S(C)(C)=O)cc2ncnc(Nc3ccc(F)cc3OCc3ccon3)c12 [Example 3.039]
44 | 5 | 82 | – | Cc1cc(N=S(C)(C)=O)cc2ncnc(Nc3ccc(F)cc3OC[C@@H]3CCC(=O)N3)c12 [Example 3.043]
45 | 63 | 49 | – | Cc1cc(N=S(C)(C)=O)cc2ncnc(Nc3ccc(F)cc3OCC3COCCO3)c12 (centres unmarked) [Example 3.044]
46 | 10 | 78 | – | Cc1cc(N=S(C)(C)=O)cc2ncnc(Nc3ccc(F)cc3OCC3CCOCC3)c12 [Example 3.045]
